Data reported in patent US20090264415A2 (priority 2004, published 2009).
Read-outs that look alike come from different tables or passages of the source.

Test system: peripheral blood mononuclear cells (PBMC) stimulated with allogeneic PBMC or EBV-transformed human B cells (RPMI1788)
Test: Mixed lymphocyte reaction (MLR) assay
Assay type: cell-based
Procedure: Pyrido[3,2-d]pyrimidine derivatives were first dissolved (10 mM) in dimethyl-sulfoxide (hereinafter referred as DMSO) and further diluted in culture medium before use for the following in vitro experiments. […] Some pyrido[3,2-d]pyrimidine derivatives described herein were tested in the following mixed lymphocyte reaction (MLR) assay.
Peripheral blood mononuclear cells (hereinafter referred as PBMC) were isolated from heparinized peripheral blood by density gradient centrifugation over Lymphoprep (Nycomed, Maorstua, Norway). Allogeneic PBMC or Eppstein-Barr Virus-transformed human B cells [commercially available under the trade name RPM11788 (ATCC name CCL156)] which strongly express B7-1 and B7-2 antigens were used as stimulator cells after irradiation with 30 Gy. MLR was performed in triplicate wells. After 5 days incubation at 37° C., 1 μCi [^3H]-thymidine was added to each cup. After a further 16 hours incubation, cells were harvested and counted in a β-counter. Inhibition of proliferation by a compound described in some of the present examples was counted while using the formula: [formula] wherein cpm is the thymidine count per minute. The MLR assay is regarded by those skilled in the art as an in vitro analogue of the transplant rejection since it is based on the recognition of allogeneic major histocompatibility antigens on the stimulator leukocytes, by responding lymphocytes.

[1] = Homo sapiens, RPMI-1788, MLR assay of example 319, read-out: MLR IC50
[2] = Homo sapiens, RPMI-1788, 50% suppression of the MLR, [3H]-thymidine incorporation, read-out: MLR

| Compound | IC50 [1] | further results |
| --- | --- | --- |
| Nc1nc(N2CCN(C(=O)Oc3ccc(Cl)cc3)CC2)c2nc(-c3ccc(F)cc3)ccc2n1 [Example 469, 2-amino-4-[4-(4-chlorophenoxycarbonyl)piperazin-1-yl]-6-(4-fluorophenyl)-pyrido[3,2-d]pyrimidine] | 500 nM |  |
| COc1ccc(-c2ccc3nc(N)nc(N4CCN(C(=O)CC(C)(C)C)CC4)c3n2)cc1OC [Example 392, 2-amino-4-[4-(3,3-dimethylbutyryl)piperazin-1-yl]-6-(3,4-dimethoxyphenyl)-pyrido[3,2-d]pyrimidine] | 300 nM |  |
| Cc1cccc(NC(=O)N2CCN(c3ncnc4ccc(-c5ccc(F)cc5)nc34)CC2)c1 [Example 558, 4-[(3-methylphenylcarbamoyl)-piperazin-1-yl]-6-(4-fluorophenyl)pyrido[3,2-d]pyrimidine] | 39 nM |  |
| COc1cccc(-c2ccc3nc(N)nc(N4CCOCC4)c3n2)n1 [Example 236, 2-amino-4-morpholino-6-(6-methoxy-2-pyridinyl)-pyrido[3,2-d]pyrimidine] |  | IC50 [2]: 5300 nM |
| Nc1nc(N2CCN(C(=O)COc3ccc(Cl)cc3)CC2)c2nc(-c3cc(Cl)ccc3Cl)ccc2n1 [Example 429, 2-amino-4-[4-(4-chlorophenoxyacetyl)piperazin-1-yl]-6-(2,5-dichlorophenyl)-pyrido-[3,2-d]pyrimidine] | 500 nM |  |
| Cc1cccc(NC(=O)N2CCN(c3nc(N)nc4ccc(-c5ccccc5Cl)nc34)CC2)c1 [Example 549, 2-amino-4-[(3-methylphenylcarbamoyl)-piperazin-1-yl]-6-(2-chlorophenyl)-pyrido[3,2-d]pyrimidine] | 80 nM |  |
| N#Cc1ccc(-c2ccc3nc(N)nc(N4CCN(C(=O)COc5ccc(Cl)cc5)CC4)c3n2)cc1 [Example 400, 2-amino-4-[4-(4-chlorophenoxyacetyl)piperazin-1-yl]-6-(4-cyanophenyl)pyrido-[3,2-d]pyrimidine] | 50 nM |  |
| Nc1nc(N2CCN(C(=O)N3CCOCC3)CC2)c2nc(-c3ccc(F)cc3)ccc2n1 [Example 466, 2-amino-4-[4-(morpholinocarbonyl)piperazin-1-yl]-6-(4-fluorophenyl)-pyrido[3,2-d]pyrimidine] | 2500 nM |  |
| Cc1ccc(-c2ccc3nc(N)nc(N4CCN(C(=O)COc5ccc(Cl)cc5)CC4)c3n2)cc1N [Example 507, 2-amino-4-[N-(4-chlorophenoxyacetyl)-piperazin-1-yl]-6-(3-amino-4-methylphenyl)-pyrido(3,2-d)pyrimidine] | 29 nM |  |
| COc1ccc(-c2ccc3nc(Cl)nc(N4CCN(C(=O)Nc5cccc(C)c5)CC4)c3n2)cc1OC [Example 14] |  | IC50 (50% suppression of the MLR, [3H]-thymidine incorporation, read-out: MLR): 66 nM |
| Nc1nc(N2CCN(C(=O)NC3CCCC3)CC2)c2nc(-c3ccc(F)cc3)ccc2n1 [Example 454, 2-amino-4-[4-(N-cyclopentylcarbamoyl)-piperazin-1-yl]-6-(4-fluorophenyl)-pyrido[3,2-d]pyrimidine] | 400 nM |  |
| COc1ccc(Cl)c(Nc2nc(N)nc3ccc(-c4ccc(OC)c(OC)c4)nc23)c1 [Example 30, 2-amino-4-(2-chloro-5-methoxy-anilino)-6-(3,4-dimethoxyphenyl)pyrido[3,2-d]pyrimidine] |  | IC50 [2]: 10000 nM |
| Nc1nc(N2CCN(c3ccc(F)cc3)CC2)c2nc(-c3ccc(F)cc3)ccc2n1 [Example 204, 2-amino-4-[N-(4-fluoro-phenyl)-piperazin-1-yl]-6-(4-fluorophenyl)-pyrido[3,2-d]pyrimidine] |  | IC50 [2]: 6400 nM |
| Nc1nc(N2CCN(C(=O)COc3ccc(Cl)cc3)CC2)c2nc(-c3c(Cl)cccc3Cl)ccc2n1 [Example 438, 2-amino-4-[4-(4-chlorophenoxyacetyl)piperazin-1-yl]-6-(2,6-dichlorophenyl)-pyrido-[3,2-d]pyrimidine] | 700 nM |  |
| Nc1nc(N2CCN(C(=O)COc3ccc(Cl)cc3)CC2)c2nc(-c3ccoc3)ccc2n1 [Example 402, 2-amino-4-[4-(4-chlorophenoxyacetyl)piperazin-1-yl]-6-(furan-3-yl)pyrido-[3,2-d]pyrimidine] | 30 nM |  |
| Nc1nc(N2CCN(C(=O)COc3ccc(Br)cc3)CC2)c2nc(-c3ccc(F)cc3)ccc2n1 [Example 388, 2-amino-4-[4-(4-bromophenoxyacetyl)piperazin-1-yl]-6-(4-fluorophenyl)-pyrido[3,2-d]pyrimidine] | 50 nM |  |
| Cc1cccc(NC(=O)N2CCN(c3nc(N)nc4ccc(-c5ccncc5)nc34)CC2)c1 [Example 542, 2-amino-4-[(3-methylphenylcarbamoyl)-piperazin-1-yl]-6-(4-pyridyl)-pyrido[3,2-d]pyrimidine] | 5 nM |  |
| Cc1cccc(NC(=O)N2CCN(c3ncnc4ccc(-c5ccc(F)cc5F)nc34)CC2)c1 [Example 556, 4-[(3-methylphenylcarbamoyl)-piperazin-1-yl]-6-(2,4-difluorophenyl)pyrido[3,2-d]pyrimidine] | 100 nM |  |
| Cc1cccc(NC(=O)N2CCN(c3nc(N)nc4ccc(-c5c(C)cccc5C)nc34)CC2)c1 [Example 550, 2-amino-4-[(3-methylphenylcarbamoyl)-piperazin-1-yl]-6-(2,6-dimethyl-phenyl)-pyrido[3,2-d]pyrimidine] | 3500 nM |  |
| Nc1nc(N2CCN(C(=O)COc3ccc(Cl)cc3)CC2)c2nc(-c3cccnc3)ccc2n1 [Example 409, 2-amino-4-[4-(4-chlorophenoxyacetyl)piperazin-1-yl]-6-(pyridin-3-yl)pyrido-[3,2-d]pyrimidine] | 5 nM |  |
| CCOc1ccc(-c2ccc3ncnc(N4CCN(C(=O)Nc5cccc(C)c5)CC4)c3n2)cc1Cl [Example 560, 4-[(3-methylphenylcarbamoyl)-piperazin-1-yl]-6-(3-chloro-4-ethoxyphenyl)pyrido[3,2-d]pyrimidine] | 380 nM |  |
| COc1ccc(-c2ccc3nc(N)nc(N4CCN(C(=O)CNC(=O)OC(C)(C)C)CC4)c3n2)cc1OC [Example 396, 2-amino-4-{4-[N-(tert-butoxycarbonyl)-glycyl]-piperazin-1-yl}-6-(3,4-di-methoxyphenyl)-pyrido[3,2-d]pyrimidine] | 50 nM |  |
| Cc1cccc(NC(=O)N2CCN(c3ncnc4ccc(-c5ccccc5C#N)nc34)CC2)c1 [Example 557, 4-[(3-methylphenylcarbamoyl)-piperazin-1-yl]-6-(2-cyanophenyl)pyrido[3,2-d]pyrimidine] | 30 nM |  |
| CS(=O)(=O)Nc1cccc(-c2ccc3nc(N)nc(N4CCN(C(=O)COc5ccc(Cl)cc5)CC4)c3n2)c1 [Example 435, 2-amino-4-[4-(4-chlorophenoxyacetyl)piperazin-1-yl]-6-[N-3-(methanesulfonamidophenyl)]-pyrido-[3,2-d]pyrimidine] | 6 nM |  |
| CN(C)C(=O)N1CCN(c2nc(N)nc3ccc(-c4ccc(F)cc4)nc23)CC1 [Example 464, 2-amino-4-[4-(dimethylcarbamoyl)piperazin-1-yl]-6-(4-fluorophenyl)-pyrido[3,2-d]pyrimidine] | 800 nM |  |
| Nc1nc(N2CCN(C(=O)COc3cccc(Cl)c3)CC2)c2nc(-c3ccc(F)cc3)ccc2n1 [Example 385, 2-amino-4-[4-(3-chlorophenoxyacetyl)piperazin-1-yl]-6-(4-fluorophenyl)-pyrido[3,2-d]pyrimidine] | 90 nM |  |
| Nc1nc(N2CCN(C(=O)CNC(=O)c3ccccc3)CC2)c2nc(-c3ccc(F)cc3)ccc2n1 [Example 478, N-(2-{4-[2-amino-6-(4-fluorophenyl)-pyrido[3,2-d]pyrimidin-4-yl]-piperazin-1-yl}-2-oxoethyl)benzamide] | 5 nM |  |
